{"source": "paper PMC6212544", "about": "“Identification and Characterization of Novel CFTR Potentiators” (Frontiers in Pharmacology, 2018)", "type_in_all_cases": "cell-based", "key": {"F508del CFTR": {"biological_target": "F508del CFTR (Homo sapiens, UniProt P13569, DEL508-508)", "sequence (P13569 with tags, fused parts or gaps DEL508-508)": "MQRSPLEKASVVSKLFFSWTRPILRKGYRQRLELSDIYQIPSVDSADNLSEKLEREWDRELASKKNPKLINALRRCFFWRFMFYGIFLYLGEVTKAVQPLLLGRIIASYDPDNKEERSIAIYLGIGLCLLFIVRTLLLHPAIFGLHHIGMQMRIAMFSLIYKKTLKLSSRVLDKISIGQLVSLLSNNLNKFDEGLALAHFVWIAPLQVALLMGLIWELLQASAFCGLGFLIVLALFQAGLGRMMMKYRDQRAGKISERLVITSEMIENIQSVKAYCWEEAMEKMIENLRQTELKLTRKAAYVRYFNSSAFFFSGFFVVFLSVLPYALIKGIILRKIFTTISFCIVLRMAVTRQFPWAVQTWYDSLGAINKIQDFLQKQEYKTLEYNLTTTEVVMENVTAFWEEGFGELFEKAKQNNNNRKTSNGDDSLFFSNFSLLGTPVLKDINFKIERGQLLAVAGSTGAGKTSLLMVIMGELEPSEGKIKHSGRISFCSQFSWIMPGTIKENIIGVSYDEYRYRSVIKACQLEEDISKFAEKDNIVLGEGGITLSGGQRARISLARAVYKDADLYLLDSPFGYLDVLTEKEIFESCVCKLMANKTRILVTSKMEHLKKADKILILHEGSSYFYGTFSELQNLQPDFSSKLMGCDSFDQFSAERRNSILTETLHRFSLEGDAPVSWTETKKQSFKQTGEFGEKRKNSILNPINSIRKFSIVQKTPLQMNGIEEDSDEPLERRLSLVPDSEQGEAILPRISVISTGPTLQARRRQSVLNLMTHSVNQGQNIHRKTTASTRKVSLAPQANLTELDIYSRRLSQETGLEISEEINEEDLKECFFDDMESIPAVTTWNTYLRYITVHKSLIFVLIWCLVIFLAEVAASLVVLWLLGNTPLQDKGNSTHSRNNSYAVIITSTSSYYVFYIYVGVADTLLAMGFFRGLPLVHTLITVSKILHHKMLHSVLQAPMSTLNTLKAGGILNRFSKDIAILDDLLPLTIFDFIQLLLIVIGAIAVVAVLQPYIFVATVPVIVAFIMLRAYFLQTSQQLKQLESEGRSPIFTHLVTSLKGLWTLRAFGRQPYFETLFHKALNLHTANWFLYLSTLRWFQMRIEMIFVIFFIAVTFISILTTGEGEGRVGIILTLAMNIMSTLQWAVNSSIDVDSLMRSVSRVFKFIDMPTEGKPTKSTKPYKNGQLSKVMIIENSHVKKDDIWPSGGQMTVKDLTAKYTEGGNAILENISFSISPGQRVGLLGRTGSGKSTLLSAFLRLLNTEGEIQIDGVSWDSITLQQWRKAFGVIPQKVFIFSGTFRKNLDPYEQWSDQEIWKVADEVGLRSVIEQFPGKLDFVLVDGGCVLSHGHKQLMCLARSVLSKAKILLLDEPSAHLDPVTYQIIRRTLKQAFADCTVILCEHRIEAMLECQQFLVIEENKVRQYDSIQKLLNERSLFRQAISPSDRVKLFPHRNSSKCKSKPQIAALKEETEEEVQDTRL", "test": "Cell surface expression assay, HRP-tagged F508del CFTR in CFBe41o- cells", "set-up": "expressed in transfected cells", "conditions": "for Corrector activity (F508del CFTR levels at the plasma membrane): 10 μM compound, HRP-tagged F508del CFTR; for Effect on cell surface expression of VX809 rescued F508del CFTR: 24 h co-incubation with 10 μM VX809, concentration range of potentiator", "procedure": "CFBE41o^- TetON cells expressing HRP tagged F508del-CFTR ([Veit et al., 2012]) were seeded at a density of 4,000 cells per well in white 384-well plates (Greiner). Medium containing 500 ng/ml doxycycline was used to induce expression of the F508del-CFTR–HRP construct. After 3 days, cells were treated with corrector and/or potentiator compounds and transferred to an incubator at 33°C. On day 4, cells were washed 5 times with PBS containing Ca^2+ and Mg^2+ using a Bio-Tek plate washer and incubated with a chemiluminescent HRP substrate (SuperSignal West Pico Chemiluminescent Substrate, Thermo Scientific) for 15 min. Chemiluminescence was measured using an Envision plate reader (Perkin Elmer)."}, "G551D CFTR": {"biological_target": "T1, G551D CFTR (Homo sapiens, UniProt P13569, G551D)", "T1 construct": "expressed in transfected cells; host or cells: HEK293, transient (jetPEI)", "T1 sequence (P13569 whole entry G551D)": "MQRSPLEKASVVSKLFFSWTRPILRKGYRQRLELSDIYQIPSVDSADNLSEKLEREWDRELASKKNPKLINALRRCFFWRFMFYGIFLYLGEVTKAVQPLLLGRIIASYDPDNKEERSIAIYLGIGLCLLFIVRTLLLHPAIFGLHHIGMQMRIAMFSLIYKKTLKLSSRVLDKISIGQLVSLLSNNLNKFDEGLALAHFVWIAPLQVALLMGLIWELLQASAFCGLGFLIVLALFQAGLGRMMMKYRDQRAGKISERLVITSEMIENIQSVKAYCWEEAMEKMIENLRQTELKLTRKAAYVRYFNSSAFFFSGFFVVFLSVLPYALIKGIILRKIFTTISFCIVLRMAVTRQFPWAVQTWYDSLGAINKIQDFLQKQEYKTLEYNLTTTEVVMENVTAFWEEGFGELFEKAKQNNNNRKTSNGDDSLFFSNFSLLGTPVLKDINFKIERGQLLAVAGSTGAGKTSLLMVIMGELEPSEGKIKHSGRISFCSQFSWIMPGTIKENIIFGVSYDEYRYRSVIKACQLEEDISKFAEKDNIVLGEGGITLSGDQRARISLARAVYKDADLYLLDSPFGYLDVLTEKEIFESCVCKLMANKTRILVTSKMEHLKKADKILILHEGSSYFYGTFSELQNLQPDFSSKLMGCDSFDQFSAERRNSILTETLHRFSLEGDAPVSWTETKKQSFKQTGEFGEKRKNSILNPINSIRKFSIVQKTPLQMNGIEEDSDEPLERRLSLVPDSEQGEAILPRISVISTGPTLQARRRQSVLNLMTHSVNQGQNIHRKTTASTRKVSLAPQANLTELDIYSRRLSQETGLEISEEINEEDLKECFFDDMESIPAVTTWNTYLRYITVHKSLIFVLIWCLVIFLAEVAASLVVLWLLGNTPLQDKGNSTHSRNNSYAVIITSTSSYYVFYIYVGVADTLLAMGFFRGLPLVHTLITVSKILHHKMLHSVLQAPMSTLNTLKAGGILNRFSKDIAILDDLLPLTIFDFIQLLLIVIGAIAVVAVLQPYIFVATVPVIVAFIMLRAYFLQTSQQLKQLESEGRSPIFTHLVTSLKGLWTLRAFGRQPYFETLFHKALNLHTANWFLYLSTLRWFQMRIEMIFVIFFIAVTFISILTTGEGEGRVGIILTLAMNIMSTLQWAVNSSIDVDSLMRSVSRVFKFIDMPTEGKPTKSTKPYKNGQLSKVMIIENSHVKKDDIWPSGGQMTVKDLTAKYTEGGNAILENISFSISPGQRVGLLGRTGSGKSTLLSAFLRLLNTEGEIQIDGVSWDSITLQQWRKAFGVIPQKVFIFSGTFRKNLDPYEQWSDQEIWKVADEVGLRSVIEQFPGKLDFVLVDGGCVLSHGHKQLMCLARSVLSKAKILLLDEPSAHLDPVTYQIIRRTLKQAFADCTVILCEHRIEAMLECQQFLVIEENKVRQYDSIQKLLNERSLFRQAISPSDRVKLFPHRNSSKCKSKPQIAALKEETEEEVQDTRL", "test": "YFP halide assay, HEK293 cells expressing G551D CFTR", "conditions": "for Efficacy on G551D CFTR relative to VX770: 10 μM forskolin, VX770 = 100; for Additive effect of GLPG1837 and GLPG2451 combined on G551D CFTR: 90 μM each, 1 μM forskolin; for Additive effect to VX770 on G551D CFTR: 90 μM potentiator plus 10 μM VX770, 1 μM forskolin", "procedure": "HEK293 cells were transfected with 10–80 ng of plasmid encoding G551D, G178R, G1349D, S549N, R117H, R334W, or wild type CFTR and 20 ng of plasmid encoding YFP (H148Q/I152L/F47L) using jetPEI (Polyplus transfection). Directly after transfection, cells were seeded in black 96-well plates coated with Poly-D-lysine at a density of 70,000 cells per well. The next day, cells were incubated at 27°C for 24 h, for low temperature correction. When evaluating in a chronic setting, the potentiator concentration range was also added to the cells for 24 h. After this incubation period, cells were washed twice with DPBS with Ca^2+ and Mg^2+. Subsequently, […] of potentiator in a volume of 40 μl and incubated at room temperature for 10 min, a timepoint optimized in previous experiments resulting in a good window (positive control/negative control > 2) and signal to background ratio. YFP fluorescence was measured using an EnVision plate reader (PerkinElmer). […] The excitation wavelength was 485 nm and the emission wavelength 530 nm. The capacity of potentiators to increase CFTR channel function was expressed as 1-[fluorescence 7 s after NaI addition (F)/fluorescence before NaI addition (F0)]. Data was normalized using the formula: normalized response = 100^∗ (absolute response – negative control response)/(VX770 response – negative response) as such, VX770 response corresponds to 100. For Dose-response experiments, data was fitted using a 4 parameter hill function of the form Response = Bottom + (Top-Bottom)/(1 + 10ˆ((LogEC50-concentration)^∗HillSlope)) to determine EC50 values."}, "S549N CFTR": {"biological_target": "T2, S549N CFTR (Homo sapiens, UniProt P13569, S549N)", "T2 construct": "expressed in transfected cells; host or cells: HEK293, transient (jetPEI)", "T2 sequence (P13569 whole entry S549N)": "as the sequence (P13569 whole entry G551D) above, with S549N, D551G counted along it", "test": "YFP halide assay, HEK293 cells expressing S549N CFTR", "conditions": "10 μM forskolin, VX770 = 100", "procedure": "(§1) HEK293 cells were transfected with 10–80 ng of plasmid encoding G551D, G178R, G1349D, S549N, R117H, R334W, or wild type CFTR and 20 ng of plasmid encoding YFP (H148Q/I152L/F47L) using jetPEI (Polyplus transfection). Directly after transfection, cells were seeded in black 96-well plates coated with Poly-D-lysine at a density of 70,000 cells per well. The next day, cells were incubated at 27°C for 24 h, for low temperature correction. When evaluating in a chronic setting, the potentiator concentration range was also added to the cells for 24 h. After this incubation period, cells were washed twice with DPBS with Ca^2+ and Mg^2+. Subsequently, cells were treated with 10 μM forskolin and the desired concentration of potentiator in a volume of 40 μl and incubated at room temperature for 10 min, a timepoint optimized in previous experiments resulting in a good window (positive control/negative control > 2) and signal to background ratio. YFP fluorescence was measured using an EnVision plate reader (PerkinElmer). […] The excitation wavelength was 485 nm and the emission wavelength 530 nm. The capacity of potentiators to increase CFTR channel function was expressed as 1-[fluorescence 7 s after NaI addition (F)/fluorescence before NaI addition (F0)]. […]"}, "WT CFTR": {"biological_target": "WT CFTR (Homo sapiens, UniProt P13569)", "sequence (P13569 whole entry)": "as the sequence (P13569 whole entry G551D) above, with D551G counted along it", "test": "YFP halide assay, HEK293 cells expressing WT CFTR", "set-up": "expressed in transfected cells", "conditions": "HEK293, 10 μM forskolin; read-out: Potency on WT CFTR (YFP halide assay)", "procedure": "as §1"}}}
{"smiles": "CC1(C)Cc2c(sc(NC(=O)c3ccn[nH]3)c2C(N)=O)C(C)(C)O1", "note": "[GLPG1837, N-(3-Carbamoyl-5,5,7,7-tetramethyl-5,7-dihydro-4H-thieno[2,3-c]pyran-2-yl)-lH-pyrazole-5-carboxamide]", "values": [{"measurement": "Corrector activity (F508del CFTR levels at the plasma membrane)", "setting": "F508del CFTR", "result": "no corrector activity"}, {"measurement": "Effect on cell surface expression of VX809 rescued F508del CFTR", "setting": "F508del CFTR", "result": "some reduction of partial rescued F508del CFTR but with a concentration response curve shifted to the right when compared to VX770"}, {"measurement": "Efficacy on G551D CFTR relative to VX770", "setting": "G551D CFTR", "result": 260, "unit": "%"}, {"measurement": "Additive effect of GLPG1837 and GLPG2451 combined on G551D CFTR", "setting": "G551D CFTR", "result": "failed to show any additive effect"}, {"measurement": "Additive effect to VX770 on G551D CFTR", "setting": "G551D CFTR", "result": "didn’t show any additive effect"}, {"measurement": "Efficacy on S549N CFTR relative to VX770", "setting": "S549N CFTR", "result": 137, "unit": "%"}, {"measurement": "EC50", "setting": "WT CFTR", "result": 104, "unit": "nM"}]}
{"smiles": "C[C@H](O)CNC(=O)c1ncc(S(=O)(=O)c2ccc(OC(F)(F)F)cc2)cc1N", "note": "[GLPG2451]", "values": [{"measurement": "Corrector activity (F508del CFTR levels at the plasma membrane)", "setting": "F508del CFTR", "result": "no corrector activity"}, {"measurement": "Effect on cell surface expression of VX809 rescued F508del CFTR", "setting": "F508del CFTR", "result": "minor effect on F508del CFTR rescued protein only at the highest concentration evaluated"}, {"measurement": "Efficacy on G551D CFTR relative to VX770", "setting": "G551D CFTR", "result": 171, "unit": "%"}, {"measurement": "Additive effect of GLPG1837 and GLPG2451 combined on G551D CFTR", "setting": "G551D CFTR", "result": "failed to show any additive effect"}, {"measurement": "Additive effect to VX770 on G551D CFTR", "setting": "G551D CFTR", "result": "didn’t show any additive effect"}, {"measurement": "Efficacy on S549N CFTR relative to VX770", "setting": "S549N CFTR", "result": 109, "unit": "%"}, {"measurement": "EC50", "setting": "WT CFTR", "result": 79.7, "unit": "nM"}]}
